Test results reported in US4252808A, “β-Lactam antibacterial agents, their use in pharmaceutical compositions, the process for their preparation and intermediates for use in that process” (Beecham Group Limited, priority 1978, dated 1981).
≈ marks a conversion by molar mass, not a printed value. Where a name gives a salt, the structure may show the parent alone.

What was measured:
Format in all cases: cell-based
[1] = tested on: P. mirabilis C 977; assay: MIC, serial dilution in nutrient agar with 5% horse blood (Table 1); conditions: Proteus mirabilis, C977, inoculum 0.001 ml undiluted broth culture
Experimental: (§1) | *Serial dilution in nutrient agar containing 5% horse blood, inoculum | 0.001 ml undiluted broth culture.

[2] = tested on: S. aureus 1517; assay: as above; conditions: Staphylococcus aureus, inoculum 0.001 ml undiluted broth culture
Experimental: as §1

[3] = tested on: S. faecalis 1; assay: as above; conditions: Enterococcus faecalis, inoculum 0.001 ml undiluted broth culture
Experimental: as §1

[4] = tested on: E. cloacae Nl; assay: as above; conditions: Enterobacter cloacae, inoculum 0.001 ml undiluted broth culture
Experimental: as §1

[5] = tested on: K. aerogenes A; assay: as above; conditions: Klebsiella aerogenes, inoculum 0.001 ml undiluted broth culture
Experimental: as §1

[6] = tested on: B. subtilis; assay: as above; conditions: Bacillus subtilis, inoculum 0.001 ml undiluted broth culture
Experimental: as §1

[7] = tested on: P. morganii; assay: as above; conditions: Morganella morganii, inoculum 0.001 ml undiluted broth culture
Experimental: as §1

[8] = tested on: S. aureus Oxford; assay: as above; conditions: Staphylococcus aureus, inoculum 0.001 ml undiluted broth culture
Experimental: as §1

[9] = tested on: E. coli JT 4; assay: as above; conditions: Escherichia coli, JT4, inoculum 0.001 ml undiluted broth culture
Experimental: as §1

[10] = tested on: S. aureus Russell; assay: as above; conditions: Staphylococcus aureus, inoculum 0.001 ml undiluted broth culture
Experimental: as §1

[11] = tested on: P. rettgeri; assay: as above; conditions: Providencia rettgeri, inoculum 0.001 ml undiluted broth culture
Experimental: as §1

[12] = tested on: S. pyogenes CN 10; assay: as above; conditions: Streptococcus pyogenes, CN10, inoculum 0.001 ml undiluted broth culture
Experimental: as §1

[13] = tested on: P. mirabilis C 977; assay: MIC, serial dilution in DST agar with 10% horse blood (Table 2); conditions: Proteus mirabilis, C977, inoculum diluted 10^-4
From the text: (§2) *Serial dilution in DST agar containing 10% horse blood, inoculum 0.001 m
(§3) broth culture diluted 10^-2 for Grampositive and 10^-4 for
(§4) Gramnegative organisms.

[14] = tested on: S. aureus 1517; assay: as above; conditions: Staphylococcus aureus, inoculum diluted 10^-2
From the text: as §2, §3, §4

[15] = tested on: S. faecalis 1; assay: as above; conditions: Enterococcus faecalis, inoculum diluted 10^-2
From the text: as §2, §3, §4

[16] = tested on: E. cloacae Nl; assay: as above; conditions: Enterobacter cloacae, inoculum diluted 10^-4
From the text: as §2, §3, §4

[17] = tested on: P. rettgeri WM 16; assay: as above; conditions: Providencia rettgeri, WM16, inoculum diluted 10^-4
From the text: as §2, §3, §4

[18] = tested on: K. aerogenes A; assay: as above; conditions: Klebsiella aerogenes, inoculum diluted 10^-4
From the text: as §2, §3, §4

[19] = tested on: P. morganii 1580; assay: as above; conditions: Morganella morganii, inoculum diluted 10^-4
From the text: as §2, §3, §4

[20] = tested on: B. subtilis; assay: as above; conditions: Bacillus subtilis, inoculum diluted 10^-2
From the text: as §2, §3, §4

[21] = tested on: S. pneumoniae CN 33; assay: as above; conditions: Streptococcus pneumoniae, CN33, inoculum diluted 10^-2
From the text: as §2, §3, §4

[22] = tested on: S. aureues Russell; assay: as above; conditions: Staphylococcus aureus, inoculum diluted 10^-2
From the text: as §2, §3, §4

[23] = tested on: S. pyogenes CN 10; assay: as above; conditions: Streptococcus pyogenes, CN10, inoculum diluted 10^-2
From the text: as §2, §3, §4

[24] = tested on: E. coli 0111; assay: as above; conditions: Escherichia coli, inoculum diluted 10^-4
From the text: as §2, §3, §4

[25] = tested on: S. aureus Oxford; assay: as above; conditions: Staphylococcus aureus, inoculum diluted 10^-2
From the text: as §2, §3, §4

| SMILES | MIC [1] [µg/mL] | MIC [2] [µg/mL] | MIC [3] [µg/mL] | MIC [5] [µg/mL] | MIC [6] [µg/mL] | MIC [7] [µg/mL] | MIC [8] [µg/mL] | MIC [9] [µg/mL] | MIC [10] [µg/mL] | MIC [11] [µg/mL] | MIC [13] [µg/mL] | MIC [14] [µg/mL] | MIC [15] [µg/mL] | MIC [16] [µg/mL] | MIC [17] [µg/mL] | MIC [18] [µg/mL] | MIC [19] [µg/mL] | MIC [20] [µg/mL] | MIC [21] [µg/mL] | MIC [22] [µg/mL] | further results |
| --- | --- | --- | --- | --- | --- | --- | --- | --- | --- | --- | --- | --- | --- | --- | --- | --- | --- | --- | --- | --- | --- |
| CC1=C(C(=O)O)N2C(=O)[C@@H](NC(=O)Cn3ncnn3)[C@H]2n2nncc21 [Compound 47, (3aR,4S)-4,5-Dihydro-5-oxo-8-methyl-4-(2-tetrazolylacetamido)-3aH-azeto[1,2-a]v-triazolo[3,4-c]pyrimidine-7-carboxylic acid] | > 100 | > 100 | 50 (≈ 145 µM) | > 100 | 0.5 (≈ 1.45 µM) | > 100 | 2.5 (≈ 7.24 µM) | > 100 | 5 (≈ 14.5 µM) | > 100 |  |  |  |  |  |  |  |  |  |  | MIC [4]: > 100 µg/mL; MIC [12]: 1 µg/mL (≈ 2.9 µM) |
| CCSCC(=O)NC1C(=O)N2C(C(=O)O)=C(C)c3cnnn3C12 [Compound 48, (3aR,4S)-4,5-Dihydro-5-oxo-8-methyl-4-ethylthioacetamido 3aH-azeto[1,2a]v-triazolo[3,4c]pyrimidine-7-carboxylic acid] |  |  |  |  |  |  |  |  |  |  | 10 (≈ 29.6 µM) | 25 (≈ 74.1 µM) | 25 (≈ 74.1 µM) | > 100 | > 100 | 50 (≈ 148 µM) | 25 (≈ 74.1 µM) | 0.2 (≈ 0.593 µM) | 1 (≈ 2.96 µM) | 5 (≈ 14.8 µM) | MIC [23]: 0.5 µg/mL (≈ 1.48 µM); MIC [24]: 50 µg/mL (≈ 148 µM) |
| Cc1nnc(SCC2=C(C(=O)O)N3C(=O)[C@@H](NC(=O)Cc4cccs4)[C@H]3n3nncc32)s1 [Compound 60, (3aR,4S) 4,5-Dihydro-5-oxo-8-[5-methyl(1,3,4-thiadiazol-2-yl)thiomethyl]-4-(2-thienylacetamido)-3aH-azeto[1,2-a]-v-triazolo[3,4-c]pyrimidine-7-carboxylic acid] | > 100 | > 100 | > 100 | > 100 | 50 (≈ 102 µM) | > 100 | > 100 | > 100 | > 100 | > 100 | > 100 | 100 (≈ 204 µM) | 25 (≈ 51.1 µM) | > 100 | > 100 | > 100 | > 100 | 5 (≈ 10.2 µM) | 0.5 (≈ 1.02 µM) | 25 (≈ 51.1 µM) | MIC [4]: > 100 µg/mL; MIC [12]: > 100 µg/mL; MIC [23]: 2.5 µg/mL (≈ 5.11 µM); MIC [24]: > 100 µg/mL |
| CC1=C(C(=O)O)N2C(=O)[C@@H](NC(=O)Cc3cccs3)[C@H]2n2nncc21 [Compound 43, (3aR,4S) 4,5-Dihydro-5-oxo-8-methyl-4-(2-thienylacetamido)-3aH-azeto[1,2-a]y-triazolo[3,4-c]pyrimidine-7-carboxylic acid] | 10 (≈ 27.8 µM) | 2.5 (≈ 6.96 µM) | 2.5 (≈ 6.96 µM) | 50 (≈ 139 µM) | < 0.2 | > 100 | 1 (≈ 2.78 µM) | > 100 | 2.5 (≈ 6.96 µM) | > 100 | 2.5 (≈ 6.96 µM) | 5 (≈ 13.9 µM) | 5 (≈ 13.9 µM) | > 100 | > 100 | 2.5 (≈ 6.96 µM) | 2.5 (≈ 6.96 µM) | ≤ 0.2 | ≤ 0.2 | 1 (≈ 2.78 µM) | MIC [12]: < 0.2 µg/mL; MIC [25]: 2.5 µg/mL (≈ 6.96 µM); MIC [23]: ≤ 0.2 µg/mL; MIC [24]: 10 µg/mL (≈ 27.8 µM) |
| CC1=C(C(=O)O)N2C(=O)[C@@H](NC(=O)CC#N)[C@H]2n2nncc21 [Compound 49, (3aR,4S)-4,5-Dihydro-5-oxo-8-methyl-4-cyanoacetamido 3aH-azeto[1,2a]v-triazolo[3,4-c]pyrimidine-7-carboxylic acid] |  |  |  |  |  |  |  |  |  |  | 50 (≈ 165 µM) | 100 (≈ 331 µM) | 25 (≈ 82.7 µM) | > 100 | > 100 | 100 (≈ 331 µM) | 100 (≈ 331 µM) | 2.5 (≈ 8.27 µM) | 5 (≈ 16.5 µM) | 25 (≈ 82.7 µM) | MIC [25]: 5 µg/mL (≈ 16.5 µM); MIC [23]: 2.5 µg/mL (≈ 8.27 µM); MIC [24]: 100 µg/mL (≈ 331 µM) |
| CO/N=C(\C(=O)N[C@@H]1C(=O)N2C(C(=O)O)=C(C)c3cnnn3[C@H]12)c1ccco1 [Compound 50, (3aR,4R)-4,5-Dihydro-5-oxo-8-methyl-4-[(2-methoxyimino-2-fur-2'-yl)acetamido]-3aH-azeto[1,2-a]v-triazolo[3,4-c]pyrimidine-7-carboxylic acid] |  |  |  |  |  |  |  |  |  |  | 50 (≈ 129 µM) | 100 (≈ 259 µM) | > 100 | > 100 | > 100 | 100 (≈ 259 µM) | 100 (≈ 259 µM) | 5 (≈ 12.9 µM) | 10 (≈ 25.9 µM) | 25 (≈ 64.7 µM) | MIC [23]: 1 µg/mL (≈ 2.59 µM); MIC [24]: 100 µg/mL (≈ 259 µM) |
| CC1=C(C(=O)O)N2C(=O)[C@@H](NC(=O)[C@H](N)c3ccccc3)[C@H]2n2nncc21 [Compound 46, (3aR,4S)-4,5-Dihydro-5-oxo-8-methyl-4-D-α-phenylglycylamino-3aH-azeto[1,2-a]v-triazolo[3,4-c]pyrimidine-7-carboxylic acid trifluoroacetic acid salt] | > 100 | > 100 | > 100 | > 100 | 100 | > 100 | > 100 | > 100 | > 100 | > 100 |  |  |  |  |  |  |  |  |  |  | MIC [4]: > 100 µg/mL |
| CC(=O)OCC1=C(C(=O)O)N2C(=O)[C@@H](NC(=O)Cc3cccs3)[C@H]2n2nncc21 [Compound 57, (3aR,4S) 4,5-Dihydro-5-oxo-8-acetoxymethyl-4-(2-thienylacetamido)-3aH-azeto[1,2-a]v-triazolo[3,4-c]pyrimidine-7-carboxylic acid] | > 100 | > 100 | > 100 | > 100 | 100 (≈ 240 µM) | > 100 | > 100 | > 100 | > 100 | > 100 |  |  |  |  |  |  |  |  |  |  | MIC [4]: > 100 µg/mL; MIC [12]: > 100 µg/mL |
| CC1=C(C(=O)O)N2C(=O)[C@@H](NC(=O)C(C(=O)Oc3ccccc3)c3ccccc3)[C@H]2n2nncc21 (stereo partly drawn) [Compound 44, (3aR,4S) 4,5-Dihydro-5-oxo-8-methyl-4-DL (α-phenoxycarbonylphenyl-acetamido)-3aH-azeto[1,2-a]v-triazolo[3,4-c]pyrimidine-7-carboxylic acid] | 50 (≈ 106 µM) | > 100 | > 100 | 50 (≈ 106 µM) | 25 (≈ 52.8 µM) | > 100 | 50 (≈ 106 µM) | > 100 | 100 (≈ 211 µM) | > 50 | 10 (≈ 21.1 µM) | 100 (≈ 211 µM) | > 100 | 50 (≈ 106 µM) | 10 (≈ 21.1 µM) | 10 (≈ 21.1 µM) | 10 (≈ 21.1 µM) | 25 (≈ 52.8 µM) | 10 (≈ 21.1 µM) | 25 (≈ 52.8 µM) | MIC [4]: > 100 µg/mL; MIC [25]: 25 µg/mL (≈ 52.8 µM); MIC [23]: 10 µg/mL (≈ 21.1 µM); MIC [24]: 10 µg/mL (≈ 21.1 µM) |
| CC1=C(C(=O)O)N2C(=O)[C@@H](NC(=O)C(F)(F)F)[C@H]2n2nncc21 [Compound 51, (3aR,4S)-4,5-Dihydro-5-oxo-8-methyl-4-trifluoroacetamido 3aH-azeto[1,2-a]v-triazolo[3,4-c]pyrimidine-7-carboxylic acid] |  |  |  |  |  |  |  |  |  |  | > 100 | > 100 | 100 (≈ 302 µM) | > 100 | > 100 | > 100 | > 100 | 5 (≈ 15.1 µM) | 50 (≈ 151 µM) | > 100 | MIC [25]: > 100 µg/mL; MIC [23]: 25 µg/mL (≈ 75.5 µM); MIC [24]: 100 µg/mL (≈ 302 µM) |
| CC1=C(C(=O)O)N2C(=O)[C@@H](NC(=O)[C@H](O)c3ccccc3)[C@H]2n2nncc21 [Compound 42, (3aR,4S) 4,5-Dihydro-5-oxo-8-methyl-4-D-mandelylamino-3aH-azeto[1,2-a]v-triazolo[3,4-c]pyrimidine-7-carboxylic acid] | > 100 | > 100 | > 100 | > 100 | 1 (≈ 2.71 µM) | 100 (≈ 271 µM) | 25 (≈ 67.7 µM) | > 100 | > 100 | > 100 |  |  |  |  |  |  |  |  |  |  | MIC [4]: > 100 µg/mL |
